Results reported in article PMC12700101 (2025).

Assays:
[1] = tested on: Dopamine DBS BHQ-1/Cy3 (1:1) (DNA, aptamer) AAATACAACAAGAAAAAACTCTCGGGACGACGCCAGTTTGAAGGTTCGTTCGCAGGTGTGGAGTGACGTCGTCCC; assay: fluorescence melting; conditions: 1x PBS, 2 mM MgCl2; pH 8.0; 50 µM dopamine; derived from two Tm (51.0, 50.6); displacement strand 1:1
[2] = tested on: Dopamine MAB BHQ-1–FAM (DNA, aptamer) ACGCCAGTTTGAAGGTTCGTTCGCAGGTGTGGAGTGACGT; assay: fluorescence melting; conditions: 1x PBS, 2 mM MgCl2; derived from two Tm (40.0 ± 0.2, 37.3 ± 0.1); 50 µM dopamine, pH 8.0
[3] = tested on: Dopamine MAB Cy3–BHQ-2 (DNA, aptamer) ACGCCAGTTTGAAGGTTCGTTCGCAGGTGTGGAGTGACGT; assay: fluorescence melting; conditions: 1x PBS, 2 mM MgCl2; derived from two Tm (49.4 ± 0.8, 53.3 ± 0.8); 50 µM dopamine, pH 8.0
[4] = tested on: Dopamine DBS Cy3/BHQ-1 (P3) (DNA, aptamer) AAATACAACAAGAAAAAACTCTCGGGACGACGCCAGTTTGAAGGTTCGTTCGCAGGTGTGGAGTGACGTCGTCCC; assay: fluorescence melting; conditions: 1x PBS, 2 mM MgCl2; pH 8.0; 50 µM dopamine; derived from two Tm (50.3, 50.1); displacement strand 1:4
[5] = tested on: Dopamine DBS Cy3(+T)/BHQ-1 (DNA, aptamer) AAATACAACAAGAAAAAACTCTCGGGACGACGTCCAGTTTGAAGGTTCGTTCGCAGGTGTGGAGTGACGTCGTCCC; assay: fluorescence melting; conditions: 1x PBS, 2 mM MgCl2; pH 8.0; 50 µM dopamine; derived from two Tm (51.6, 50.9); displacement strand 1:4
[6] = tested on: Dopamine DBS Cy3(+T)/BHQ-1 (int.) (DNA, aptamer) AAATACAACAAGAAAAAACTCTCGGGACGACGTCCAGTTTGAAGGTTCGTTCGCAGGTGTGGAGTGACGTCGTCCC; assay: fluorescence melting; conditions: 1x PBS, 2 mM MgCl2; pH 8.0; 50 µM dopamine; derived from two Tm (50.3, 49.9); displacement strand 1:4
[7] = tested on: Dopamine DBS Cy3(+T)/BHQ-1 (term.) (DNA, aptamer) AAATACAACAAGAAAAAACTCTCGGGACGACGTCCAGTTTGAAGGTTCGTTCGCAGGTGTGGAGTGACGTCGTCCC; assay: fluorescence melting; conditions: 1x PBS, 2 mM MgCl2; pH 8.0; 50 µM dopamine; derived from two Tm (50.8, 50.0); displacement strand 1:4
[8] = tested on: Dopamine DBS FAM(+T)/BHQ-1 (term.) (DNA, aptamer, 6-FAM-modified dT (click, i6-FAMK) at 33) AAATACAACAAGAAAAAACTCTCGGGACGACGTCCAGTTTGAAGGTTCGTTCGCAGGTGTGGAGTGACGTCGTCCC; assay: fluorescence melting; conditions: 1x PBS, 2 mM MgCl2; pH 8.0; 50 µM dopamine; derived from two Tm (48.4, 48.3); displacement strand 1:4
[9] = tested on: Dopamine DBS Cy3–BHQ-1 (Position 1/Adjacent) (DNA, aptamer) AAATACAACAAGAAAAAACTCTCGGGACGACGACCAGTTTGAAGGTTCGTTCGCAGGTGTGGAGTGACGTCGTCCC; assay: fluorescence strand-displacement titration; conditions: 1x PBS, 2 mM MgCl2; apparent; pH 8.0, 25 °C; displaced CGTCGTCCCCTCTTCACATATCTATTTTTTCTTGTTGTATTT, 4 eq, 5'-BHQ-1
[10] = tested on: Dopamine DBS Cy3(+T)–BHQ-1 (DNA, aptamer) AAATACAACAAGAAAAAACTCTCGGGACGACGTACCAGTTTGAAGGTTCGTTCGCAGGTGTGGAGTGACGTCGTCCC; assay: fluorescence strand-displacement titration; conditions: 1x PBS, 2 mM MgCl2; apparent; pH 8.0, 25 °C; displaced 42-nt 5'-BHQ-1 strand, 4 eq
[11] = tested on: Dopamine DBS FAM(+T)–IABkFQ (DNA, aptamer, 6-FAM-dT (azide click) at 33) AAATACAACAAGAAAAAACTCTCGGGACGACGTACCAGTTTGAAGGTTCGTTCGCAGGTGTGGAGTGACGTCGTCCC; assay: fluorescence strand-displacement titration; conditions: 1x PBS, 2 mM MgCl2; apparent; pH 8.0, 25 °C; displaced 42-nt 5'-IABkFQ strand, 4 eq
[12] = tested on: Dopamine DBS FAM(+T)–BHQ-1 Internal (DNA, aptamer, 6-FAM-dT (azide click) at 33) AAATACAACAAGAAAAAACTCTCGGGACGACGTACCAGTTTGAAGGTTCGTTCGCAGGTGTGGAGTGACGTCGTCCC; assay: fluorescence strand-displacement titration; conditions: 1x PBS, 2 mM MgCl2; apparent; pH 8.0, 25 °C; displaced 42-nt strand, internal BHQ-1, 4 eq
[13] = tested on: Dopamine DBS Cy3–BHQ-1 (Position 2) (DNA, aptamer) AAATACAACAAGAAAAAACTCTCGGGACGACGACCAGTTTGAAGGTTCGTTCGCAGGTGTGGAGTGACGTCGTCCC; assay: fluorescence strand-displacement titration; conditions: 1x PBS, 2 mM MgCl2; apparent; pH 8.0, 25 °C; displaced 42-nt strand, internal BHQ-1 (position 2), 4 eq
[14] = tested on: Dopamine MAB FAM–Dab (DNA, aptamer, dabcyl-5-methyl-dC at 41 (3' end)) ACGCCAGTTTGAAGGTTCGTTCGCAGGTGTGGAGTGACGTC; assay: fluorescence quenching titration (molecular aptamer beacon); conditions: 1x PBS, 2 mM MgCl2; apparent; pH 8.0, 25 °C

Tm [1]: -0.4 °C
Tm [2]: -2.7 °C
Tm [3]: 3.9 °C
Tm [4]: -0.2 °C
Tm [5]: -0.7 °C
Tm [6]: -0.4 °C
Tm [7]: -0.8 °C
Tm [8]: -0.1 °C
Kd [9]: 229.9 ± 22.0 µM
Kd [10]: 76.7 ± 5.5 µM
Kd [11]: 19.6 ± 0.9 µM
Kd [12]: 7.5 ± 0.9 µM
Kd [13]: 2.2 ± 0.7 µM
Kd [14]: 3.2 ± 0.2 µM
Compound: NCCc1ccc(O)c(O)c1
